In patent US20160029629A1, “LAWN GROWTH-PROMOTING AGENT AND METHOD OF USING SAME” (BAYER CROPSCIENCE AKTIENGESELLSCHAFT, priority 2013, published 2016):

How the values were obtained:
Agrostis stolonifera = assay: Biologic Example 2: seeded lawn test, length of above-ground and root portions after soil treatment; format: in vivo
Description: Test crop: Agrostis stolonifera Test method: Plastic cups (diameter 20 cm, depth 5 cm) were filled with a soil mixture (1:1 mixture of sand and mulch), the soil was treated (2,000 L/ha water) with penflufen prepared to a predetermined concentration (Cerenturf Forte) on the day A. stolonifera was planted and at 0.5 leaf cycles, after which germination state was examined. In order to ensure evenness of irrigation, an atomizer was used for a fixed number of pushes, and water amount was monitored so as to be uniform. A basal application was not used. Examination method: Cuttings were taken at random from the test area, and the lengths of the above-ground and root portions were measured.

Zoysia Matrella = assay: Biological Example 1: sod growth test, weight of roots, runners and erect stems after spray treatment; format: in vivo; details: for Roots weight: 334 ppm spray, 2,000 L/ha; for Roots weight / Erect stem weight / Erect stems/runners / Roots weight vs. untreated / Roots/(roots + runners + erect stems) / Roots/runners / Runner weight: 170 days later; for Erect stem weight / Erect stems/runners / Roots weight vs. untreated / Roots/(roots + runners + erect stems) / Roots/runners / Runner weight: 334 ppm spray
From the text: Test crop: Zoysia Matrella
Test method: Z. Matrella sod was laid in a roughly 15 cm checked pattern, and, approximately one month later, penflufen prepared to a predetermined concentration (Cerenturf Forte; aqueous suspension of 22.7 wt % penflufen and 77.3% surfactant and water, prepared according to a normal method) was sprayed thereon (2,000 L/ha). 170 days later, a hole cutter was used to cut out sod sections and interstitial sections, the sections were separated into roots, runners, and erect stems, and the weight of each was measured.

[1] = tested on: brown patch (Rhizoctonia solani); details: in vivo; cited from earlier work
[2] = 142 ppm, treated at 0.5 leaf cycles, 5 days after treatment
[3] = 142 ppm, treated on day of planting, 20 days after treatment
[4] = 283 ppm, treated at 0.5 leaf cycles, 5 days after treatment
[5] = 283 ppm, treated on day of planting, 20 days after treatment
[6] = 525 ppm, treated at 0.5 leaf cycles, 5 days after treatment
[7] = 525 ppm, treated on day of planting, 20 days after treatment

Cc1nn(C)c(F)c1C(=O)Nc1ccccc1C(C)CC(C)C (stereo not shown) [Penflufen, N-[2-(1,3-dimethylbutyl)phenyl]-5-fluoro-1,3-dimethyl-1H-pyrazol-4-carboxamide]
Above-ground portion (mm) (Agrostis stolonifera; [2]): 18.8 mm
Roots (mm) (Agrostis stolonifera; [2]): 3.9 mm
Roots/above-ground portion % (Agrostis stolonifera; [2]): 20.6%
Above-ground portion (mm) (Agrostis stolonifera; [3]): 15.9 mm
Roots (mm) (Agrostis stolonifera; [3]): 3.3 mm
Roots/above-ground portion % (Agrostis stolonifera; [3]): 20.8%
Above-ground portion (mm) (Agrostis stolonifera; [4]): 17.3 mm
Roots (mm) (Agrostis stolonifera; [4]): 3.5 mm
Roots/above-ground portion % (Agrostis stolonifera; [4]): 20.1%
Above-ground portion (mm) (Agrostis stolonifera; [5]): 17.3 mm
Roots (mm) (Agrostis stolonifera; [5]): 3.2 mm
Roots/above-ground portion % (Agrostis stolonifera; [5]): 18.8%
Root growth relative to above-ground portions (Agrostis stolonifera; registered weight (283 ppm) and half-weight, planting day and 0.5 leaf cycle treatment): root growth tended to be promoted over that of above-ground portions
Amount of roots compared to the untreated area (Zoysia Matrella; both the interstitial section and the sod section): increase in the amount of roots
Ratio of the root weight to the total weight of the roots, runners, and erect stems, treated vs untreated area (Zoysia Matrella; in vivo): higher in the treated area than in the untreated area
Amount of roots compared to the untreated area (Zoysia Matrella; interstitial section): especially marked increase
Roots weight (Zoysia Matrella; interstitial section): 1.13 g
Erect stem weight (Zoysia Matrella; interstitial section): 4.57 g
Erect stems/runners (Zoysia Matrella; interstitial section): 124%
Roots weight vs. untreated (Zoysia Matrella; interstitial section): 127%
Roots/(roots + runners + erect stems) (Zoysia Matrella; interstitial section): 12.02%
Roots/runners (Zoysia Matrella; interstitial section): 31%
Runner weight (Zoysia Matrella; interstitial section): 3.70 g
Roots weight (Zoysia Matrella; sod section): 1.57 g
Erect stem weight (Zoysia Matrella; sod section): 11.52 g
Erect stems/runners (Zoysia Matrella; sod section): 130%
Roots weight vs. untreated (Zoysia Matrella; sod section): 103%
Roots/(roots + runners + erect stems) (Zoysia Matrella; sod section): 7.16%
Roots/runners (Zoysia Matrella; sod section): 18%
Runner weight (Zoysia Matrella; sod section): 8.84 g
Effectiveness against brown patch [1]: extremely effective

Cc1nc(C(F)(F)F)c(C(=O)Nc2c(Br)cc(OC(F)(F)F)cc2Br)s1 [Thifluzamide]
Above-ground portion (mm) (Agrostis stolonifera; [6]): 16.9 mm
Roots (mm) (Agrostis stolonifera; [6]): 2.0 mm
Roots/above-ground portion % (Agrostis stolonifera; [6]): 12.0%
Above-ground portion (mm) (Agrostis stolonifera; [7]): 15.3 mm
Roots (mm) (Agrostis stolonifera; [7]): 1.4 mm
Roots/above-ground portion % (Agrostis stolonifera; [7]): 9.1%
